Our source for the inhibition values is publication PMC6934184, “Selective DNA-PKcs inhibition extends the therapeutic index of localized radiotherapy and chemotherapy” (The Journal of Clinical Investigation, 2019).

The term inhibition denotes the drop in the measured response relative to a control, in per cent. Low values mean a response near the control, high ones a response far below the control.

The assay addresses T1, PRKCG (PKC gamma) (Homo sapiens, UniProt P05129).
T1 construct: purchased Thermo Fisher Scientific (Life Technologies) SelectScreen
The assay is described as follows: SelectScreen Z'LYTE. It is filed as biochemical. In short, it runs like this: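 NU5455 was profiled across the SelectScreen Broad panel of kinase activity and binding assays. Z'LYTE reactions such as CSF1R ran at apparent Km ATP, while the Adapta CAMK1 assay used ATP listed as 10. Values are given as percent.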

In the case of `CN(C(=O)CN1CCOCC1)c1ccc2sc3c(-c4cccc5c(=O)cc(N6CC7CCC(C6)O7)oc45)cccc3c2c1` [NU5455], at 1 µM the inhibition was 7.6%.
